Source: patent US6573078B1, “Compounds which inhibit HIV replication” (priority 1992, dated 2003)
Entries after “also recorded” stand apart in the source; their conditions may differ.

B1: DP-107 (peptide)
peptide: Ac-NNLLRAIEAQQHLLQLTVWGIKQLQARILAVERYLKDQ-NH2
notes: Synthetic peptide; also called peptide DP-107

Columns and labels:
[1] = system: HIV-1LAI virus; assay: Peptide blockade of HIV-1 induced cell-cell fusion (syncytia formation; Molt4 cells co-cultivated with chronically infected CEM cells); assay type: cell-based; set-up: Anti-fusogenic activity (in words): dose or concentration left out as unconfirmed; settings: for Fusion: quantity of compound required for 90% reduction in number of syncytia: control = 90 syncytia; for No. Syncytia/well: Table 3, ctrl cells only = 85; for Inhibitory / anti-viral / biological activity (in words): cell fusion assay
Protocol: The initial screen for antiviral activity of the peptides shown in FIG. 1 was for blockade of syncytium formation induced by overnight co-cultivation of uninfected Molt4 cells with chronically infected (HIV-1IIIB) CEM cells.
Approximately 7×10^4 Molt cells were incubated with 1×10^4 CEM cells chronically infected with the HIV-1LAI virus in 96 well plates (one-half area cluster plates;Costar. Cambridge, Mass.) in a final volume of […] culture media in accordance with known techniques (T. Matthews et al., Proc. Natl. Acad. Sci. U.S.A. 84, 5424 (1987)). Peptide inhibitors were added in a volume of […] and the cell mixtures were incubated for 24 hr at 37° C. At that time point, multinucleated giant cells were estimated by microscopic examination at a 40× magnification which allowed visualization of the entire well in a single field.

[2] = system: HIV-1LAI; assay: Peptide inhibition of infection by cell-free virus (neutralization assay; AA5 cells, RT activity readout); assay type: cell-based
Protocol: Cell cultures were maintained in 96-well microtiter plates for 8 days by addition of fresh medium (but no further addition of peptides) every other day. On the eighth day post-infection, supernatant was tested for reverse transcriptase activity as evidence of successful infection.
The micro RT assay was adapted from Goff et al. (J. Virol. 38, 239 (1981)) and Willey et al. (J. Virol. 62, 139 (1988)). Supernatants from virus/cell cultures are made 1% in Triton-X100. A […] sample of supernatant was added to 50 ml of RT cocktail in a 96 well U bottom microtiter plate and the samples incubated at […] for 90 min. The cocktail contained 75 mM KCl, 2 mM dithiothreitol, 5 mm Mgcl2l 5 mg/ml poly A (Pharmacia cat. No. 27-4110-01), 0.25 units/ml oligo dT (Pharmacia cat. No. 27-7858-01), 0.05% NP40, 50 mM Tris-HC1, pH 7.8, 0.5 mM non-radioactive dTTP, and 10 mCi/ml ^32p-dTTP (Amersham cat. No. PB.10167). After the incubation period, 40 ml of reaction mixture was applied to a Schleicher and Schuell NA45 membrane (or DE81 paper) saturated in 2×SSC buffer (0.3M NaCl and […]) held in a Schleicher and Schuell Minifold over one sheet of GB003 filter paper. Each well of the minifold was washed four times with […] 2×SSC. The membrane was removed from the minifold and washed 2 more times in a pyrex dish with an excess of 2×SSC. Finally the membrane was drained on absorbent paper, placed on Whatman #3 paper, covered with saran wrap, and exposed to film overnight.
The HIV1LAI virus was obtained from R. Gallo (see M. Popovic et al., Science 224, 497 (1984)) and propagated in CEM cells cultured in RPMI 1640 containing 10-% FCS. Supernatant from the infected CEM cells was passed through a […] and the infectious titer estimated in a microinfectivity assay using the AA5 cell line to support virus replication. For this purpose 25 ml of serially diluted virus was added to 75 ml AA5 cells at 2×10^5/ml in a 96 well microtiter plate. Each virus dilution was tested in triplicate. Cells were cultured for eight days by addition of fresh medium every other day. On day 8 post infection supernatant samples were tested for virus replication as evidenced by RT activity released to the supernatant in accordance with the procedure described above. The TCID50 was calculated according to the Reed and Muench formula in accordance with known techniques. See L. Reed et al., Amer. J. Hygiene 27, 493 (1938) . The titer of the HIV-1LAI stock used for these studies, as measured on the AA5 cell line, was approximately 1×10^7TCID50/ml. The two primary isolates were obtained from PBMCs of two infected donors, one from Brazil (HIV-1Br3) and the other Trinidad (HIV-1Q72775) by co-cultivation with PHA-blasted normal donor PBMCs in RPMI 1640 containing IL2. The infectious titers of the primary virus stocks were estimated by titration onto normal human PHA blasted PBMCs in a 96 well microtiter plate, again using RT activity released to the supernatant as evidence for successful infection. The infectious titer of both of these isolates was estimated to be approximately 1×10^3 TCID100/ml.
The peptides were next tested for blockade of infection by cell-free virus. The results shown in FIG. 3 are representative of several experiments in which the DP-107, 125, and (CS3) peptides were compared for potency in the blockade of HIVLAI, infection of AA5 cells. Each level of peptide was incubated in triplicate with about 500 TCID50 of virus and cells. After 7 days of culture, cell-free supernatant was tested for the presence of RT activity as a measure of successful infection.

[3] = Circular dichroism spectra / thermal melt (secondary structure in solution); assay type: physicochemical; settings: for Conformation by CD spectra (in words): 37° C.
Protocol: (A) and 37° C. (B). Concentration dependence of the midpoint of the temperature dependence (Tm) of the CD signal (C). Tm corresponds to the maxima of the first derivative of the CD melt curve. The CD spectra were obtained in […], 150 mM sodium chloride buffer at pH 7.0.
Circular dichroism spectra were measured in 10 mM sodium phosphate, 150 mM sodium chloride, pH 7.0 buffer at approximately […] using a 1 cm pathlength cell on a Jobin/Yvon Autodichrograph Mark V CD spectrometer. Peptide concentrations were determined from A280 using Edlehoch's method (Biochemistry 6, 1948 (1967)).

[4] = molecular target: the molecule itself; assay: CD thermal melt, concentration dependence of Tm (self-association)
[5] = peptide concentration 1.25 ug/ml on IIIB
[6] = peptide concentration 2.5 ug/ml on IIIB
[7] = peptide concentration 5 ug/ml on IIIB
[8] = peptide concentration 10 ug/ml on IIIB
[9] = peptide concentration 20 ug/ml on IIIB
[10] = peptide concentration 40 ug/ml on IIIB
[11] = EXP. 1, peptide concentration 1.5 micrograms/ml, 0 peptide = 89
[12] = EXP. 1, peptide concentration 3 micrograms/ml, 0 peptide = 89
[13] = EXP. 1, peptide concentration 6 micrograms/ml, 0 peptide = 89
[14] = EXP. 1, peptide concentration 12 micrograms/ml, 0 peptide = 89
[15] = EXP. 1, peptide concentration 25 micrograms/ml, 0 peptide = 89
[16] = EXP. 1, peptide concentration 50 micrograms/ml, 0 peptide = 89

Molecule | Fusion: quantity of compound required for 90% reduction in number of syncytia [1] | Neutraliz: quantity of compound required for 90% reduction in infectivity [2] | No. Syncytia/well [1, 5] | No. Syncytia/well [1, 6] | No. Syncytia/well [1, 7] | No. Syncytia/well [1, 8] | No. Syncytia/well [1, 9] | No. Syncytia/well [1, 10] | further results
CGGNNLLRAIEAQQHLLQLTVWGIKQLQARILAV [DP-136] | >40 µg/mL | >30 µg/mL |  |  |  |  |  |  | 
CGGNNLLRAIEAQQHLLQLTVWGIKQLQARILAVERYLKDQGGC [DP-130] | 2 µg/mL | <1 µg/mL | 47 | 0 | 0 | 0 | 0 | 0 | 
DP-31: peptide representing an overlapping immunodominant site of gp41 (SEQ ID NO: 5); sequence only in FIG. 1 (H-ERYLKDQQLLGIWGCSCKLICG-OH; cysteine pairing not given here) |  |  |  |  |  |  |  |  | Syncytia Number [1, 11]: 75; Syncytia Number [1, 12]: 90; Syncytia Number [1, 13]: 87; Syncytia Number [1, 14]: 78; Syncytia Number [1, 15]: 80; Syncytia Number [1, 16]: 85; Inhibitory / anti-viral / biological activity (in words) [1]: failed to show inhibitory activity
GIKQLQARILAVERYLKDQQ [DP-122] | >40 µg/mL | >30 µg/mL |  |  |  |  |  | 73 | 
IEAQQHLLQLTVWGIKQLQARILAVERYLKDQ [DP-123] | 40 µg/mL | >30 µg/mL | 80 | 69 | 76 | 86 | 55 | 4 | 
LQARILAVERYLKDQQQ [DP-116, reference compound] | >40 µg/mL | >30 µg/mL |  |  |  |  |  | 77 | Anti-fusogenic activity (in words) [1]: no evidence of anti-fusogenic activity; Syncytia Number [1, 11]: 82; Syncytia Number [1, 12]: 89; Syncytia Number [1, 13]: 92; Syncytia Number [1, 14]: 93; Syncytia Number [1, 15]: 82; Syncytia Number [1, 16]: 89; Blockade of HIVLAI infection of AA5 cells (in words) ([2]; about 500 TCID50 of virus, RT activity in supernatant, FIG. 3): no hint of anti-viral effect; Conformation by CD spectra (in words) [3]: random coil conformations; Stable secondary structure by CD (in words) ([3]; even at low temperatures and high concentrations): no evidence for stable secondary structure
NNLLRAIEAQQHLLQLTVWGAKQLQARILAVERYLKDQ [DP-140] | 17 µg/mL | 14 µg/mL |  |  |  |  |  |  | 
NNLLRAIEAQQHLLQLTVWGIKQLQARILAV [DP-127] | 7 µg/mL | 23 µg/mL | 87 | 53 | 20 | 0 | 0 | 0 | 
NNLLRAIEAQQHLLQLTVWGIKQLQARILAVERYLKDQGGC [DP-129] | <1 µg/mL | <1 µg/mL | 0 | 0 | 0 | 0 | 0 | 0 | 
NNLLRAIEAQQHLLQLTVWGPKQLQARILAVERYLKDQ (Ac-NNLLRAIEAQQHLLQLTVWGPKQLQARILAVERYLKDQ-NH2) [DP-121] | >40 µg/mL | >30 µg/mL |  |  |  |  |  | 79 | Syncytia Number ([1]; EXP. 3, peptide concentration 2.5 micrograms/ml, 0 peptide = 76): 68; Syncytia Number ([1]; EXP. 3, peptide concentration 5 micrograms/ml, 0 peptide = 76): 60; Syncytia Number ([1]; EXP. 3, peptide concentration 10 micrograms/ml, 0 peptide = 76): 65; Syncytia Number ([1]; EXP. 3, peptide concentration 20 micrograms/ml, 0 peptide = 76): 71; Syncytia Number ([1]; EXP. 3, peptide concentration 40 micrograms/ml, 0 peptide = 76): 69; Inhibitory / anti-viral / biological activity (in words) [1]: did not exhibit anti-viral activity; also recorded: no sign of inhibitory activity; Conformation by CD spectra (in words) [3]: random coil conformations; also recorded: failed to exhibit helix related signals
NNLLRAIEAQQHLLQLTVWGSKQLQARILAVERYLKDQ [DP-139] | >40 µg/mL | >30 µg/mL |  |  |  |  |  |  | 
QQLLDVVKRQQEMLRLTVWGTKNLQARVTAIEKYLKDQ [DP-118] |  |  | 74 | 78 | 80 | 77 | 0 | 0 | 
B1 |  |  |  |  |  |  |  |  | binding result [4]: binds
